Biological target: Nurr1 protein (Homo sapiens, UniProt P43354)
Test: SPR
Assay type: binding

Chain of Nurr1 protein (P43354 whole entry): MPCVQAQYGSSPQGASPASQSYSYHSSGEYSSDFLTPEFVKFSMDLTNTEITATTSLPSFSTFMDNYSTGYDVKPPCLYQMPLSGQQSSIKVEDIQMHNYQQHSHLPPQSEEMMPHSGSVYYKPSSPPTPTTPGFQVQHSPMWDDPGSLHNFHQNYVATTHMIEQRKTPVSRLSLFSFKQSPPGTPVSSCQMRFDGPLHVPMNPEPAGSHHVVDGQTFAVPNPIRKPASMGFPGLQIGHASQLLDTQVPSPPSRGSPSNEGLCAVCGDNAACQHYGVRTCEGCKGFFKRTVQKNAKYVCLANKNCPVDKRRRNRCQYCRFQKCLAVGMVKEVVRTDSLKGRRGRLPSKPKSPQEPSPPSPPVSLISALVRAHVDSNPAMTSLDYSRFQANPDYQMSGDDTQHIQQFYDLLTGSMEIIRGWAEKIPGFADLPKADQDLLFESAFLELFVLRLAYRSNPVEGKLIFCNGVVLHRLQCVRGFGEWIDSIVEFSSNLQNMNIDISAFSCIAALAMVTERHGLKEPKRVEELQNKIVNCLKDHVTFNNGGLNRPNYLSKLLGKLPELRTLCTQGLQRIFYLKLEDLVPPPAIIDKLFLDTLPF

Compound `CCN(CC)Cc1cc(Nc2ccnc3cc(Cl)ccc23)ccc1O` [amodiaquine] has a Kd of 37 µM.
Compound `CO[C@H]1C[C@H](O[C@H]2CC[C@]3(C=O)[C@H]4CC[C@]5(C)[C@@H](C6=CC(=O)OC6)CC[C@]5(O)[C@@H]4CC[C@]3(O)C2)O[C@H](C)[C@H]1O[C@@H]1O[C@H](CO[C@@H]2O[C@H](CO)[C@@H](O)[C@H](O)[C@H]2O)[C@@H](O)[C@H](O)[C@H]1O` [compound 7, K-strophanthoside] has a Kd of 23.1 µM.
